Test results taken from patent US20210274787A1, “USE OF A DIFLUORO-(2-HYDROXYPROPYL)PYRIDINE COMPOUND AS A FUNGICIDE FOR CONTROL OF LEAF SPOT OF SUGAR BEETS” (Dow AgroSciences LLC, priority 2016, published 2021).

System: Cercospora beticola (CERCBE), leaf spot of sugar beet
Assay: Field assessment of Cercospora beticola (CERCBE) in sugar beets
Type: in vivo
Conditions: for % Control CERCBE (based on AUDPC): sugar beet field, natural infection
Source text: Field Assessment of Cercospora beticola (CERCBE) in Sugar Beets:
A fungicidal treatment containing an EC formulation of compound I by itself and in combination with four adjuvants was sprayed on sugar beet plants (BEAVA, Corvina variety) six times during the course of 7 weeks ([…]) under natural infection with CERCBE. The commercial standard used in the study was difenoconazole (Score) and was applied at 100 g ai/ha. The treatment was part of an experimental trial designed as a randomized complete block with four replications and a plot of approximately 1×2 m. Compound I was applied at water volume of 400 L/ha, using a backpack precision plot sprayer (BKPCKAIR, EVEN FAN TEEJET TP 8004EVS Nozzle, 1 m boom width) and pressurized at 250 kPa.
Disease severity was recorded as a percentage of visual diseased foliage on whole plot. Cercospora leaf spot infection was assessed five times, 6 days after application A (DAAA); 6 DAAC; 12 DAAB; and 7 and 21 DAAF. The disease infection was recorded following EPPO PP 1/1 (4) guideline prescriptions. Area under the disease progress curve (AUDPC) was calculated for each plot using the sets of recorded severity data. Relative AUDPC (% control based on AUDPC) was calculated as percent of the nontreated control.

## N#Cc1ccc(Oc2ccc(C(F)(F)C(O)(Cn3nc[nH]c3=S)c3ccc(F)cc3F)nc2)cc1 (stereo not shown) [Compound I, 4-((6-(2-(2,4-difluorophenyl)-1,1-difluoro-2-hydroxy-3-(5-thioxo-4,5-dihydro-1H-1,2,4-triazol-1-yl)propyl)pyridin-3-yl)oxy)benzonitrile]
100 g ai/ha in 0.15% Phase II, Ethomeen, Lutensol or Agnique BP-420, ANOVA and Tukey's test (p=0.10)
  CERCBE control compared with difenoconazole (statistical): statistically equivalent to that of the commercial standard difenoconazole at 100 g ai/ha
100 g ai/ha in Agnique BP-420 (50% EC formulation at 0.3% v/v) or 0.15% Lutensol
  level of control of CERCBE compared with difenoconazole (numerical): numerically equivalent to that of difenoconazole at 100 g ai/ha
Leaf spot of sugar beet, general statement
  fungicidal effect on Cercospora beticola: significant fungicidal effect
50 g ai/ha, adjuvant Agnique BP-420 (50% w/w at 0.3% v/v)
  % Control CERCBE (based on AUDPC): B (51-74)
50 g ai/ha, no adjuvant
  % Control CERCBE (based on AUDPC): B (51-74)
100 g ai/ha, adjuvant Agnique BP-420 (50% w/w at 0.3% v/v)
  % Control CERCBE (based on AUDPC): A (75-100)
100 g ai/ha, adjuvant Ethomeen T18H (0.15% v/v)
  % Control CERCBE (based on AUDPC): B (51-74)
100 g ai/ha, adjuvant Lutensol TDA 9 (0.15% v/v)
  % Control CERCBE (based on AUDPC): A (75-100)
100 g ai/ha, adjuvant Phase II (0.15% v/v)
  % Control CERCBE (based on AUDPC): B (51-74)
100 g ai/ha, no adjuvant
  % Control CERCBE (based on AUDPC): B (51-74)
150 g ai/ha, adjuvant Agnique BP-420 (50% w/w at 0.3% v/v)
  % Control CERCBE (based on AUDPC): A (75-100)
150 g ai/ha, no adjuvant
  % Control CERCBE (based on AUDPC): B (51-74)

## CC1COC(Cn2cncn2)(c2ccc(Oc3ccc(Cl)cc3)cc2Cl)O1 (stereo not shown) [Difenoconazole, difenoconazole, reference compound]
100 g ai/ha, Score (commercial standard)
  % Control CERCBE (based on AUDPC): A (75-100)
